The source made the active and inactive calls. The calls are words filed in the database; no cut-off is given here.
Key:
[1] = Brain to plasma partition coefficient, Kp of the compound in Jcl-ICR mouse at 100 mg/kg, ip measured at 2 hrs by LC/MS/MS analysis; assay type: ADME, organism-based
Mus musculus [2] = experiment: In-vivo inhibition of ALK in ICR mouse prefrontal cortex assessed as reduction in phosphorylated ALK level at 100 mg/kg, ip after 1 hr by Western blot analysis; assay type: functional, organism-based
Focal adhesion kinase 1 [3] = target: T1, Focal adhesion kinase 1 (Homo sapiens, UniProt Q05397); experiment: Inhibition of full-length N-terminal FLAG-tagged FAK (unknown origin) expressed in baculovirus expression system at 100 nM preincubated for 5 mins followed by ATP addition and measured after 60 mins by alphascreen assay relative to control
Target sequence in this assay (Q05397 2-1052 limits assumed): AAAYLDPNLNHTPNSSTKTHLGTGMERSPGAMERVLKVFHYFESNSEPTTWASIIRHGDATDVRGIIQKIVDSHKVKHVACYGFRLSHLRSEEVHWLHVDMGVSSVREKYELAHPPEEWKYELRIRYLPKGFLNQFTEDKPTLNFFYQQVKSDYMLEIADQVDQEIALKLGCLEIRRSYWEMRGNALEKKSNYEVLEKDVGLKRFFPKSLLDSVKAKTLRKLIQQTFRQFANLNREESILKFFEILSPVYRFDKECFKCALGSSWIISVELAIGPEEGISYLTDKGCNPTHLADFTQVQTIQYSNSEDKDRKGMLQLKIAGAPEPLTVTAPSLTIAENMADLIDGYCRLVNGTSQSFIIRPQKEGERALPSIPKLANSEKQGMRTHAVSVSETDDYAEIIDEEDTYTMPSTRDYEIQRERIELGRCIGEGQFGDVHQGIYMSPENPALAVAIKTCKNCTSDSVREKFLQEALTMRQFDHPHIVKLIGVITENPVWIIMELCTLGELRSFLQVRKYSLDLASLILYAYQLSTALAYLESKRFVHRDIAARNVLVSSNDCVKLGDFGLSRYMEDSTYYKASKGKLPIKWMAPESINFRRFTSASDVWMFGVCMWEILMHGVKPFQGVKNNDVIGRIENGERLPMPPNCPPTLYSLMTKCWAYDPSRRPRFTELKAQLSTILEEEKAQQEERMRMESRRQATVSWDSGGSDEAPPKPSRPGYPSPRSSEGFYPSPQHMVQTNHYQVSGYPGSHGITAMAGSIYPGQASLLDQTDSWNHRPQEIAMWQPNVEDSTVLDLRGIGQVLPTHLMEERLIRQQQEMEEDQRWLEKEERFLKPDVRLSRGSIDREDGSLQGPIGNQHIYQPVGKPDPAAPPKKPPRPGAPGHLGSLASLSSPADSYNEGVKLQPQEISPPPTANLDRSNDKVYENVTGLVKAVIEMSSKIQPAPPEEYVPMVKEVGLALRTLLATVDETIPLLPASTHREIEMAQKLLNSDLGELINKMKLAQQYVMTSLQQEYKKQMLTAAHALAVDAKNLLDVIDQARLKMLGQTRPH

[4] = target: Serine/threonine-protein kinase Chk1 (Homo sapiens) (UniProt O14757); experiment: Inhibition of CHEK1 (unknown origin) at 100 nM by [gamma-33P]ATP-based radiometric or Alphascreen assay relative to control
[5] = Drug level in Jcl-ICR mouse brain at 100 mg/kg, ip measured at 0.5 hrs by LC/MS/MS analysis; assay type: ADME, organism-based; details: read-out: Drug uptake
[6] = Fraction unbound in ICR mouse brain at 1 umol/L measured for 16 to 20 hrs by equilibrium dialysis based LC-MS/MS analysis; assay type: ADME, tissue-based; details: 1 µM
[7] = target: ALK tyrosine kinase receptor (Homo sapiens, UniProt Q9UM73)
Description: Inhibition of human ALK kinase domain (1058 to 1620 residues) expressed in baculovirus expression system using biotin-poly-GT as substrate pre-incubated for 10 mins followed by ATP addition and measured after 60 mins by HTRF method

[8] = target: Epidermal growth factor receptor (Homo sapiens) (UniProt P00533); experiment: Inhibition of human N-terminal DYKDDDD-tagged EGFR cytoplasmic domain (669 to 1210 residues) expressed in baculovirus expression system at 100 nM using poly-Glu-Tyr(4:1) as substrate preincubated for 5 mins followed by [gamma-33P]ATP addition and measured after 10 mins by topcount scintillation counting method relative to control
[9] = target: Cell division cycle 7-related protein kinase (Homo sapiens) (UniProt O00311); experiment: Inhibition of CDC7 (unknown origin) at 100 nM by [gamma-33P]ATP-based radiometric or Alphascreen assay relative to control
Homo sapiens = organism: Homo sapiens; experiment: Selectivity ratio of IC50 for human FAK kinase domain (411 to 686 residues) expressed in baculovirus expression system to IC50 for human ALK kinase domain (1058 to 1620 residues) expressed in baculovirus expression system
[10] = target: Mitogen-activated protein kinase 14 (Homo sapiens) (UniProt Q16539); experiment: Inhibition of N-terminal FLAG-tagged p38alpha (unknown origin) expressed in baculovirus expression system at 100 nM using myelin basic protein as substrate preincubated for 5 mins followed by [gamma-33P]ATP addition and measured after 60 mins by topcount scintillation counting method relative to control
[11] = target: Casein kinase I isoform delta (Homo sapiens) (UniProt P48730); experiment: Inhibition of CK1delta (unknown origin) at 100 nM by [gamma-33P]ATP-based radiometric or Alphascreen assay relative to control
[12] = target: High affinity nerve growth factor receptor (Homo sapiens, UniProt P04629); experiment: Inhibition of N-terminal GST-tagged human TrkA kinase domain (436 to 790 residues) expressed in baculovirus expression system using biotin-poly-GT as substrate pre-incubated for 5 mins followed by ATP addition and measured after 60 mins by alpha screen assay
[13] = Unbound brain-to-plasma concentration ratio in Jcl-ICR mouse at 100 mg/kg, ip measured at 2 hrs by LC/MS/MS analysis; assay type: ADME, organism-based; details: read-out: K(p,uu,brain)
[14] = target: Aurora kinase B (Homo sapiens) (UniProt Q96GD4); experiment: Inhibition of N-terminal His6-tagged AuroraB (unknown origin) expressed in baculovirus expression system at 100 nM using aurora peptide as substrate preincubated for 5 mins followed by [gamma-33P]ATP addition and measured after 60 mins by topcount scintillation counting method relative to control
Mus musculus [15] = experiment: In-vivo inhibition of ALK in ip dosed ICR mouse hippocampus assessed as reduction in phosphorylated ALK level after 1 hr by Western blot analysis; assay type: functional, organism-based
[16] = target: Cyclin-dependent kinase 2 (Homo sapiens) (UniProt P24941); experiment: Inhibition of CDK2 (unknown origin) at 100 nM by [gamma-33P]ATP-based radiometric or Alphascreen assay relative to control
[17] = target: Tyrosine-protein kinase JAK1 (Homo sapiens) (UniProt P23458); experiment: Inhibition of JAK1 (unknown origin) at 100 nM by [gamma-33P]ATP-based radiometric or Alphascreen assay relative to control
[18] = Unbound brain-to-plasma concentration ratio in Jcl-ICR mouse at 100 mg/kg, ip measured at 1 hr by LC/MS/MS analysis; assay type: ADME, organism-based; details: read-out: K(p,uu,brain)
[19] = target: cAMP-dependent protein kinase catalytic subunit alpha (Homo sapiens) (UniProt P17612); experiment: Inhibition of PKA (unknown origin) expressed in Escherichia coli at 100 nM using PKA substrate peptide preincubated for 5 mins followed by [gamma-33P]ATP addition and measured after 10 mins by topcount scintillation counting method relative to control
[20] = target: Protein kinase C theta type (Homo sapiens) (UniProt Q04759); experiment: Inhibition of N-terminal FLAG-tagged PKCtheta (unknown origin) expressed in baculovirus expression system at 100 nM using pGS peptide as substrate preincubated for 5 mins followed by [gamma-33P]ATP addition and measured after 30 mins by topcount scintillation counting method relative to control
[21] = target: Insulin receptor (Homo sapiens) (UniProt P06213); experiment: Inhibition of IRK (unknown origin) at 100 nM by [gamma-33P]ATP-based radiometric or Alphascreen assay relative to control
[22] = target: Glycogen synthase kinase-3 beta (Homo sapiens) (UniProt P49841); experiment: Inhibition of N-terminal FLAG-tagged GSK3beta (unknown origin) expressed in baculovirus expression system at 100 nM using pGS peptide as substrate preincubated for 5 mins followed by [gamma-33P]ATP addition and measured after 30 mins by topcount scintillation counting method relative to control
[23] = target: MAP kinase-activated protein kinase 2 (Homo sapiens) (UniProt P49137); experiment: Inhibition of MAPKAPK2 (unknown origin) at 100 nM by [gamma-33P]ATP-based radiometric or Alphascreen assay relative to control
[24] = target: Vascular endothelial growth factor receptor 2 (Homo sapiens) (UniProt P35968); experiment: Inhibition of N-terminal FLAG-tagged VEGFR2 (unknown origin) expressed in baculovirus expression system at 100 nM preincubated for 5 mins followed by ATP addition and measured after 10 mins by alphascreen assay relative to control
[25] = target: Mitogen-activated protein kinase kinase kinase 5 (Homo sapiens) (UniProt Q99683); experiment: Inhibition of N-terminal FLAG-tagged ASK1 (unknown origin) expressed in baculovirus expression system at 100 nM using myelin basic protein as substrate preincubated for 5 mins followed by [gamma-33P]ATP addition and measured after 60 mins by topcount scintillation counting method relative to control
Focal adhesion kinase 1 [26] = target: T1, Focal adhesion kinase 1; experiment: Inhibition of human FAK kinase domain (411 to 686 residues) expressed in baculovirus expression system using biotin-poly-GT as substrate pre-incubated for 10 mins followed by ATP addition and measured after 60 mins by HTRF method
MDR1 (ABCB1, P-gp) = MDR1 (ABCB1, P-gp) (Homo sapiens, UniProt P08183); experiment: Substrate activity at human MDR1 expressed in pig LLC-PK1 cells assessed as efflux ratio of apparent permeability across basolateral to apical over apical to basolateral side at 10 uM after 2 hrs by LC/MS/MS analysis; assay type: ADME, cell-based

Sequence of Glycogen synthase kinase-3 beta (Homo sapiens) (P49841 whole entry, looked up): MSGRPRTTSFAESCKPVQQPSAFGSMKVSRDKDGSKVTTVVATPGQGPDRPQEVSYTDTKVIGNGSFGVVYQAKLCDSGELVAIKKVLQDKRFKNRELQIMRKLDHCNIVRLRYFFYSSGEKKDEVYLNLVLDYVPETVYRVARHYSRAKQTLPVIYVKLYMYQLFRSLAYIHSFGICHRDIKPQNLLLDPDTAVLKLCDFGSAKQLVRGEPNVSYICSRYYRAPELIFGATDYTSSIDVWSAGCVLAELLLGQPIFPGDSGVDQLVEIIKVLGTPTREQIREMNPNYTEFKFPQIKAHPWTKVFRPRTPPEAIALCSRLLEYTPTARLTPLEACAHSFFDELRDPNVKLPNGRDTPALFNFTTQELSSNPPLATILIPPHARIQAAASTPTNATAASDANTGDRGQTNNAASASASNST
Sequence of Serine/threonine-protein kinase Chk1 (Homo sapiens) (O14757 whole entry): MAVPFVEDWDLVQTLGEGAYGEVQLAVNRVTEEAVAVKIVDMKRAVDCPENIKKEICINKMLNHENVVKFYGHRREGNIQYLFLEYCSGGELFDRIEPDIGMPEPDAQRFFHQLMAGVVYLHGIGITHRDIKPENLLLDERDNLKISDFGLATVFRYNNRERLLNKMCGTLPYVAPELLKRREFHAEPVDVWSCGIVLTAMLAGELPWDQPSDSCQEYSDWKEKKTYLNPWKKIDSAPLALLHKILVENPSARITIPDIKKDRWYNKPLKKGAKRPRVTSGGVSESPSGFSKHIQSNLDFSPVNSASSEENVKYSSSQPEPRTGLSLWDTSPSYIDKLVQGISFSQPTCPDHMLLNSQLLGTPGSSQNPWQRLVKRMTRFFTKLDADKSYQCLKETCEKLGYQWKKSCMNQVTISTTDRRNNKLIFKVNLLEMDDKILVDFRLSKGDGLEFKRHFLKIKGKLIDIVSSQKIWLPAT
Sequence of Cell division cycle 7-related protein kinase (Homo sapiens) (O00311 whole entry, looked up, the tested form may be a part): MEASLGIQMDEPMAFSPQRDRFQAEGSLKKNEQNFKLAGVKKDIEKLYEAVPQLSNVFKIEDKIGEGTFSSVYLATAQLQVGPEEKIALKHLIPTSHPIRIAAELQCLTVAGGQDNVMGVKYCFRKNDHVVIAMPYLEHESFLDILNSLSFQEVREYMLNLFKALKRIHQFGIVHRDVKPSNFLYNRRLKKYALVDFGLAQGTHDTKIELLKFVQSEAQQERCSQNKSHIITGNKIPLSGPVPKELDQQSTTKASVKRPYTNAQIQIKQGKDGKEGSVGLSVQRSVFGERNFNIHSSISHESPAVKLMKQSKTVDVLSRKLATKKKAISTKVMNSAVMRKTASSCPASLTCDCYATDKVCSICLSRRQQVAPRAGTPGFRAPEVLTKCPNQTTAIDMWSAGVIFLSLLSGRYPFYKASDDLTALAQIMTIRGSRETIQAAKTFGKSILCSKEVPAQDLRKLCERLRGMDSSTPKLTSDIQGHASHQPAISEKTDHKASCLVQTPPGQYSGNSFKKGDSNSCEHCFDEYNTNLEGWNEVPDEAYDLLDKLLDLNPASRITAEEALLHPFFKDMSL
Sequence of Insulin receptor (Homo sapiens) (P06213 28-758 limits assumed): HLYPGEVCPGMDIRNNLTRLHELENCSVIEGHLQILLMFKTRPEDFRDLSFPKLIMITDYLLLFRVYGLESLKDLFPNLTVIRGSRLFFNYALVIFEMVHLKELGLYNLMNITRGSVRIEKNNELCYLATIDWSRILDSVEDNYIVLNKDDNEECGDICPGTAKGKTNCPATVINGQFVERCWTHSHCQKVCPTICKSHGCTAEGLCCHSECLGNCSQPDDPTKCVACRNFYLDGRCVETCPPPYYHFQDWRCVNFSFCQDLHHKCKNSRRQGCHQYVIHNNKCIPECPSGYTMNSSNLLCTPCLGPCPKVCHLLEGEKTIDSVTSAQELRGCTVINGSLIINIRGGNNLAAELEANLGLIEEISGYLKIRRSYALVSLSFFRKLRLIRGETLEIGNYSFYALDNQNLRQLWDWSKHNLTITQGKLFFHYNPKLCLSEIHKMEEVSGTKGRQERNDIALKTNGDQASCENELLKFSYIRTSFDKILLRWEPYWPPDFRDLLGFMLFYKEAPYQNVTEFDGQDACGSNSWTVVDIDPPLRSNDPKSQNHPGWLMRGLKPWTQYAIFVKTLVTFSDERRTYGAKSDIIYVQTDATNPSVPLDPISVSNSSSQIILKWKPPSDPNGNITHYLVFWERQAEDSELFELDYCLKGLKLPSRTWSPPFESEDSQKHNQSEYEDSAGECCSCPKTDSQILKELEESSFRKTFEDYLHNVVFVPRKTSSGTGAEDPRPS
Sequence of Insulin receptor (Homo sapiens) (P06213 763-1382 limits assumed): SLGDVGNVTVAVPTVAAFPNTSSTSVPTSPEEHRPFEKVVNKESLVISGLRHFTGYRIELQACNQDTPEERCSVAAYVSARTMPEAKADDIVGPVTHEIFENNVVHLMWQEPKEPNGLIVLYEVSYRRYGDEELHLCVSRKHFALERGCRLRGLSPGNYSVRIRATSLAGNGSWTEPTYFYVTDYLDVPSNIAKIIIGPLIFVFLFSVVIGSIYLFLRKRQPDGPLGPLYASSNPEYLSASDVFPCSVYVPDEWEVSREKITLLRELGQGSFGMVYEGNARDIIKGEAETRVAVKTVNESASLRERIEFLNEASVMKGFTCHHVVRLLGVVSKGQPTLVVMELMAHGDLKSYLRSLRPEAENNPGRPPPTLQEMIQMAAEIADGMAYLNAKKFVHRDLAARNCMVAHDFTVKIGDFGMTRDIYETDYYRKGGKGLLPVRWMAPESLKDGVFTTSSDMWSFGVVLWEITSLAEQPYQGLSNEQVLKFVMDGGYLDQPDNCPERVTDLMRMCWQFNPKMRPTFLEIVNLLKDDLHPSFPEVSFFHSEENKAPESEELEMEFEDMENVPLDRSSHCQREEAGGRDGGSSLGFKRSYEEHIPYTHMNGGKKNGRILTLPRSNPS
Sequence of MAP kinase-activated protein kinase 2 (Homo sapiens) (P49137 whole entry, looked up): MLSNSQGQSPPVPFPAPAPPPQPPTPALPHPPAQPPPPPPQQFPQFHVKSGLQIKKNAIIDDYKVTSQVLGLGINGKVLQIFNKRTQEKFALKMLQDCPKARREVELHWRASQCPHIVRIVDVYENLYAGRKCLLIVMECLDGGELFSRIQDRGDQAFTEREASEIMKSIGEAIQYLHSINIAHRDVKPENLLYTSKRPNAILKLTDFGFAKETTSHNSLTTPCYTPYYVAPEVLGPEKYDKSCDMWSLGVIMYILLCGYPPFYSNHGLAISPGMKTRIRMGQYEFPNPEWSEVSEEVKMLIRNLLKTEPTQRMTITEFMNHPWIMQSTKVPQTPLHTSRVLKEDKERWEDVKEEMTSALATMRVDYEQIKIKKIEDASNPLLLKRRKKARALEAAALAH
Sequence of Casein kinase I isoform delta (Homo sapiens) (P48730 whole entry, looked up, the tested form may be a part, canonical isoform): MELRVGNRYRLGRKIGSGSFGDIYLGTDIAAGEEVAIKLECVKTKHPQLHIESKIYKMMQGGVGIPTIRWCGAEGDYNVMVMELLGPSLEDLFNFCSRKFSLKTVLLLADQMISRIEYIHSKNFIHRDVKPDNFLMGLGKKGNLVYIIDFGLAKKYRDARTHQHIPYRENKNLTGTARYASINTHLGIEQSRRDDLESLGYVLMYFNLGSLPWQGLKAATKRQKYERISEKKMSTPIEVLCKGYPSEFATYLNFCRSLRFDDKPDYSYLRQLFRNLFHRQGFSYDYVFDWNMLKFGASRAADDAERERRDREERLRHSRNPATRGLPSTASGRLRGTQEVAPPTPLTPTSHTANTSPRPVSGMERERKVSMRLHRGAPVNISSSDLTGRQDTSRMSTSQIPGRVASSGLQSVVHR

Kp at 2 h [1]: 0.515 | inhibition (Focal adhesion kinase 1 [3]): 83% | inhibition [4]: -9% | concentration at 0.5 h [5]: 33000 ng/mL | Fu [6]: 0.017% | IC50 [7]: 2.9 nM | inhibition [8]: -1% | inhibition [9]: -2% | Ratio IC50 (Homo sapiens): 10 | inhibition [10]: -4% | inhibition [11]: 6% | IC50 [12]: 2600 nM | Kp uu at 2 h [13]: 0.11 | inhibition [14]: 21% | inhibition [16]: 5% | inhibition [17]: -8% | Kp uu at 1 h [18]: 0.27 | inhibition [19]: 12% | inhibition [20]: 2% | inhibition [21]: 2% | inhibition [22]: 3% | inhibition [23]: 3% | inhibition [24]: 2% | inhibition [25]: -1% | IC50 (Focal adhesion kinase 1 [26]): 25 nM | efflux ratio at 2 h, 10 µM (MDR1 (ABCB1, P-gp)): 1
Compound: Cc1cc(-n2cc(C(=O)N3CCO[C@@H](C)C3)c3ccc(O[C@@H](C)c4ccc(F)cn4)nc32)n[nH]1
inhibition (Mus musculus [2]): Active | inhibition (Mus musculus [15]): Dose-dependent effect

Reference: ChEMBL document CHEMBL4396868, “Discovery of Potent, Selective, and Brain-Penetrant 1 H-Pyrazol-5-yl-1 H-pyrrolo[2,3- b]pyridines as Anaplastic Lymphoma Kinase (ALK) Inhibitors” (J Med Chem, 2019)
